The target of assay [1] is PaFSCY (individual cyclase domain of fusicoccadiene synthase) (Diaporthe amygdali, UniProt A2PZA5). Briefly: EnzChek pyrophosphate release, steady-state kinetics, A360. The class given is biochemical. The conditions noted are these: Mg2+ 2.5 mM, pH 7.5; cyclization to fusicoccadiene.
Assay [2] deals with PaFS (full-length fusicoccadiene synthase) (Diaporthe amygdali, UniProt A2PZA5). Described as above. As to conditions: Mg2+ 2.5 mM, pH 7.5; cyclization to fusicoccadiene; cyclase domain. The class given is biochemical.
PaFS (full-length fusicoccadiene synthase), sequence (A2PZA5 whole entry, the tested form may be a part): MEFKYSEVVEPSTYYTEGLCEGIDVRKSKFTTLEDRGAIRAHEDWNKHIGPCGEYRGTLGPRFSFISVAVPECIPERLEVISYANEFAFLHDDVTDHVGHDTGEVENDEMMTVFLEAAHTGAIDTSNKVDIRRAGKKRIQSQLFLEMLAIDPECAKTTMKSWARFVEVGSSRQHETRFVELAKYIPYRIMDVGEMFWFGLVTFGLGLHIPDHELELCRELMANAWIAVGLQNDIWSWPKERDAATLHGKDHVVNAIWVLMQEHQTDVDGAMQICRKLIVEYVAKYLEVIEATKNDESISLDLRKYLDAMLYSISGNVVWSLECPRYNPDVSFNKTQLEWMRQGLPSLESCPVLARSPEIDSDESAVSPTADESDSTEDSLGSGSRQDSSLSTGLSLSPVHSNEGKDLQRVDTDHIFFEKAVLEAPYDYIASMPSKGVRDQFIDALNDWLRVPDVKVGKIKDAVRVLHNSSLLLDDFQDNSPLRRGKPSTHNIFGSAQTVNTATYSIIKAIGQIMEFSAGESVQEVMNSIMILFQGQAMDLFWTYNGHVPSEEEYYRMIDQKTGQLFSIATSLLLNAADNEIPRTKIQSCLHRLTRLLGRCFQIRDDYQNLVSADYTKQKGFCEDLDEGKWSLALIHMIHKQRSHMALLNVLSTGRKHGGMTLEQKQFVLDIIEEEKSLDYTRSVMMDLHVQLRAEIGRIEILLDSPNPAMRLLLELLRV

PaFSCY (individual cyclase domain of fusicoccadiene synthase), sequence (A2PZA5 1-344): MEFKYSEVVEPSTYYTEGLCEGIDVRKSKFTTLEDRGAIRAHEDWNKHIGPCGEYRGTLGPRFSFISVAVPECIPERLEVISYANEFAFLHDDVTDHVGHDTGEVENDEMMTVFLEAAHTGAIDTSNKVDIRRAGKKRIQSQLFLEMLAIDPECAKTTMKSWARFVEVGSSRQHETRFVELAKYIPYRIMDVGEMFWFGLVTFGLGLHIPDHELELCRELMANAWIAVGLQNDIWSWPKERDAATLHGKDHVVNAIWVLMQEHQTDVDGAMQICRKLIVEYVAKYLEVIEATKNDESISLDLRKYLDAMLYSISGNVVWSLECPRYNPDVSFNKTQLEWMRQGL

As to `CC(C)=CCC/C(C)=C/CC/C(C)=C/CC/C(C)=C/COP(=O)(O)OP(=O)(O)O` [GGPP, geranylgeranyl diphosphate], the KM entry in assay [1] is “(PaFS, PaFSLL, and PaFSCY) are most efficient”; in assay [2], “(PaFS, PaFSLL, and PaFSCY) are most efficient”.

For the origin of these results see PMC10996616 (bioRxiv, 2024).
